Measured values published in US20250049693A1, “METHOD FOR AMPLIFYING EXPRESSION OF TRANSPORTER-RELATED GENE IN EPIDERMAL CELLS” (J-Network, Inc., priority 2023, published 2025).

What was measured:
SVCT2 gene = assay: Amplification of mRNA expression of SVCT2 gene (quantitative real-time PCR); format: cell-based, human; settings: NHEKs; 100 μM; culture 30 hr; corrected with GAPDH, control = 1
Method: (§1) A test for confirming the amplification of mRNA expression of each transporter-related gene in epidermal cell was performed.
(§2) Normal human epidermal keratinocytes (NHEKs) were seeded on a 96-well plate at a cell density of 2.0×10^4cells/well using HuMedia-KG2 medium (manufactured by Kurabo Industries Ltd.), and cultured under the conditions of 37° C. and 5% CO2 for 24 hours.
(§3) Thereafter, a diacylglycerol PEG adduct was added thereto using HuMedia-KB2 medium (manufactured by Kurabo Industries Ltd.), and each was cultured under the conditions of 37° C. and 5% CO2 for a predetermined time. Table 1 represents the target gene, the types of diacylglycerol PEG adduct added, the adding amount, and the culture time. A control (no addition) was also cultured under the same conditions.
(§4) After the cells were cultured for each predetermined time, RNA was extracted from the cells of each sample and control. The extracted RNA was reverse-transcribed to prepare cDNA, and the mRNA of the target gene was quantified by quantitative real-time PCR expression analysis. […]
(§5) In the analysis, the mRNA expression level of each target gene was corrected with the value of the expression level of GAPDH, which is an internal standard in the same sample, and the correction value of the sample was calculated as a relative expression level when the correction value of the control was set to 1.

GSR gene = assay: Amplification of mRNA expression of GSR gene (quantitative real-time PCR); format: cell-based, human; settings: NHEKs, corrected with GAPDH, control = 1
Method: as §1, §2, §3, §4, §5

SLC7A11 gene = assay: Amplification of mRNA expression of SLC7A11 gene (quantitative real-time PCR); format: cell-based, human; settings: NHEKs; 100 μM; culture 24 hr; corrected with GAPDH, control = 1
Method: as §1, §2, §3, §4, §5

ABCC1 gene = assay: Amplification of mRNA expression of ABCC1 gene (quantitative real-time PCR); format: cell-based, human; settings: NHEKs, corrected with GAPDH, control = 1
Method: as §1, §2, §3, §4, §5

[1] = system: Normal human epidermal keratinocytes (NHEKs); assay: Evaluation of cellular uptake action of vitamin C: hydroquinone cytotoxicity, neutral red assay; format: cell-based; settings: then 400 μM hydroquinone 24 hours
Method: This evaluation was performed by quantifying the cytotoxicity of hydroquinone (HQ) when a diacylglycerol PEG adduct, vitamin C, and hydroquinone were added to epidermal cells.
Normal human epidermal keratinocytes (NHEKs) were seeded on a 96-well plate at a cell density of 2.0×10^4 cells/well using HuMedia-KG2 medium and cultured under the conditions of 37° C. and 5% CO: for 24 hours.
Thereafter, using HuMedia-KB2 medium, a sample to which 50 μM of PEG-23 glycerol distearate (GDS23) was added and a sample to which GDS23 was not added were respectively cultured under the conditions of 37° C. and 5% CO: for 24 hours.
Subsequently, the samples were washed with PBS (−), and the GDS23-added samples and the GDS23 non-added samples were respectively cultured in the following six media for 24 hours. • HuMedia-KB2 medium containing 0 μM of ascorbic acid (AsA) • HuMedia-KB2 medium containing 1 μM of ascorbic acid (AsA) • HuMedia-KB2 medium containing 5 μM of ascorbic acid (AsA) • HuMedia-KB2 medium containing 10 μM of ascorbic acid (AsA) • HuMedia-KB2 medium containing 50 μM of ascorbic acid (AsA) • HuMedia-KB2 medium containing 100 μM of ascorbic acid (AsA)
The control (no addition of any of GDS23, AsA, and HQ) was cultured only in HuMedia-KB2 medium.

[2] = system: Normal human epidermal keratinocytes (NHEKs); assay: Evaluation of cellular uptake action of cystine: hydroquinone cytotoxicity, neutral red assay; format: cell-based; settings: then 400 μM hydroquinone 24 hours
Method: From the test results of (1) and (2) described above, it was confirmed that the expression of the SLC7A11 genes was enhanced by the application of the diacylglycerol PEG adduct to epidermal cells, and thus the production of the protein, which is the xCT transporter encoded thereby, was enhanced. Therefore, the cellular uptake action of cystine was actually evaluated. This evaluation was performed by quantifying the cytotoxicity of hydroquinone (HQ) when a diacylglycerol PEG adduct, cystine, and hydroquinone were added to epidermal cells.
Normal human epidermal keratinocytes (NHEKs) were seeded on a 96-well plate at a cell density of 2.0×10^4 cells/well using HuMedia-KG2 medium and cultured under the conditions of 37° C. and 5% CO2 for 24 hours.
Thereafter, using HuMedia-KB2 medium, a sample to which 50 μM of PEG-23 glycerol distearate (GDS23) was added and a sample to which GDS23 was not added were respectively cultured under the conditions of 37° C. and 5% CO2 for 24 hours.
Subsequently, the samples were washed with PBS (−), and the GDS23-added samples and the GDS23 non-added samples were respectively cultured in the following three media for 30 hours. The cysteine added to the medium is oxidized in the medium or between cells to be converted into cystine, which is a dimer, and is incorporated into the cells as cystine. • HuMedia-KB2 medium containing 0 μM of cysteine (Cys) • HuMedia-KB2 medium containing 10 μM of cysteine (Cys) • HuMedia-KB2 medium containing 50 μM of cysteine (Cys)
Further, the cells were washed with PBS (−) and cultured in HuMedia-KB2 medium containing 400 μM of hydroquinone (HQ) for 24 hours.
The control (no addition of any of GDS23, Cys, and HQ) was cultured only in HuMedia-KB2 medium.
Thereafter, the cell viability was measured by the neutral red assay. The cell viability was calculated for each of the GDS23-added samples and the GDS23 non-added samples, taking the cell viability of the control as 100%.

SVCT2 protein = assay: Test for enhanced production of SVCT2 proteins (Western blotting); format: cell-based, human; settings: NHEKs, 50 μM, 24 hours
Method: A test for confirming the enhanced production of proteins encoded by the SVCT2 genes was performed using Western blotting.
Normal human epidermal keratinocytes (NHEKs) were seeded on a 96-well plate at a cell density of 1.0×10^5 cells/well using HuMedia-KG2 medium and cultured under the conditions of 37° C. and 5% CO2 for 24 hours.
Thereafter, 50 μM of PEG-23 glycerol distearate (GDS23) was added thereto using HuMedia-KB2 medium, and the cells were cultured under the conditions of 37° C. and 5% CO2 for 24 hours. A control (no addition) was cultured only in HuMedia-KB2 medium.
After culturing, Western blotting was applied. First, proteins were extracted from the cells using […] containing 10% mercaptoethanol. The protein extract solution was subjected to electrophoresis using a polyacrylamide gel, and the proteins were transferred to a membrane by a semi-dry method. The amount of the SVCT2 protein was corrected with the amount of GAPDH, which is an internal standard in the same sample, and the correction value of the sample was calculated with the correction value of the control set to 1.

**Q.** Which results are given for PEG-12 glycerol dimyristate [GDM12]?
**A.** relative expression level of SVCT2 gene (SVCT2 gene): about 1.4 times that of the control; relative expression level of GSR gene (GSR gene; 100 μM, culture 30 hr): about 1.5 times that of the control; relative expression level of SLC7A11 gene (SLC7A11 gene): about 1.4 times that of the control; relative expression level of ABCC1 gene (ABCC1 gene; 100 μM, culture 30 hr): about 1.3 times that of the control

**Q.** How did the “effect of ascorbic acid on the cytotoxicity caused by hydroquinone (cell viability)” value ([1]; GDS23 non-added samples, ascorbic acid 5 to 100 μM, 24 hours, versus ascorbic acid non-added sample) turn out when `O=C1O[C@H]([C@@H](O)CO)C(O)=C1O` [ascorbic acid, reference compound] was run?
**A.** The value was “almost no effect”.

**Q.** For `N[C@@H](CS)C(=O)O` [cysteine, reference compound], which “effect of cysteine (cystine) on the cytotoxicity caused by hydroquinone (cell viability)” value ([2]; GDS23 non-added samples, cysteine 10 μM and 50 μM, 30 hours, versus cysteine non-added sample) is on record?
**A.** Its value is “almost no effect”.

**Q.** How did the “SVCT2 protein band (Western blot image)” value (SVCT2 protein; FIG. 11) turn out when PEG-23 glycerol distearate [GDS23] was run?
**A.** Its value is “increase”.

**Q.** And the “amount of the SVCT2 protein” value (SVCT2 protein; Western blot, corrected with GAPDH, control = 1)?
**A.** The value was “about 1.4 times that in the control sample”.

**Q.** What about the “relative expression level of GSR gene” value (GSR gene; 50 μM, culture 24 hr) of the same compound?
**A.** The value was “about 1.8 times that of the control”.

**Q.** And the “cytotoxicity by hydroquinone (cell viability), GDS23-added versus GDS23 non-added samples” value ([1]; 50 μM GDS23 24 hours, ascorbic acid 0-100 μM 24 hours)?
**A.** The value was “significantly reduced”.

**Q.** What about the “cell viability of ascorbic acid-added samples versus ascorbic acid non-added sample among GDS23-added samples” value ([1]; 50 μM GDS23 24 hours, ascorbic acid 1-100 μM 24 hours) of the same compound?
**A.** Its value is “higher”.

**Q.** And the “cytotoxicity by hydroquinone (cell viability), GDS23-added versus GDS23 non-added samples” value ([2]; 50 μM GDS23 24 hours, cysteine 0-50 μM 30 hours)?
**A.** Its value is “significantly reduced”.

**Q.** What about the “cell viability of cysteine-added samples versus cysteine non-added sample among GDS23-added samples” value ([2]; 50 μM GDS23 24 hours, cysteine 10 or 50 μM 30 hours) of the same compound?
**A.** Its value is “higher”.

**Q.** And the “relative expression level of ABCC1 gene” value (ABCC1 gene; 50 μM, culture 24 hr)?
**A.** Its value is “about 2.1 times that of the control”.
